Source: patent publication US8293729B2 (Boehringer Ingelheim International GmbH, priority 2009, dated 2012)
Read-outs that look alike come from different tables or passages of the source.

Molecular target: T1, human GPR119 receptor (Homo sapiens, UniProt Q8TDV5, S329A/T327A)
T1 construct: N-terminal leader […]; expressed in transfected cells
T1 sequence (Q8TDV5 with tags, fused parts or gaps T327A/S329A): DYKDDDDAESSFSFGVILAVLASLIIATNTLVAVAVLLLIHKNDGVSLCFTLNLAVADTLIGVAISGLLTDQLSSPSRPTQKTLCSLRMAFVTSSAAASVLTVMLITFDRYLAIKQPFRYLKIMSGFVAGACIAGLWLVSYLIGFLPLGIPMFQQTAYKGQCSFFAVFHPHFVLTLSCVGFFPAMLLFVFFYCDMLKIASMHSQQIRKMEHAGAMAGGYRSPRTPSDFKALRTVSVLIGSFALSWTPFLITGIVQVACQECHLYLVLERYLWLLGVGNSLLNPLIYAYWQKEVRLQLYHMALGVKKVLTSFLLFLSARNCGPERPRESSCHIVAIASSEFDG
Assay: cAMP assay (LANCE cAMP-384) in HEK293 cells stably expressing mutant human GPR119 receptor
Format: cell-based
Conditions: for activation at 10 µM: HEK293, 20 min
In short: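 Agonist EC50 came from nonlinear regression over 12 concentrations (30 μM–100 pM), with % stimulation at 10 μM where no EC50 was obtained. Cells: stable HEK293 with mutant human GPR119 (T327A/S329A), 20 min compound at 37° C; cAMP read by LANCE kit with standard curve.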

[1] = cAMP accumulation, HEK293 cells stably expressing mutant human GPR119, read-out: EC50
[2] = single concentration 10 μM, given where no EC50 value could be determined, read-out: % stimulation at 10 μM
[3] = the 19th table, unit inferred, read-out: EC 50
[4] = the 36th table, compounds 66-1 to 66-51, read-out: EC50

In the case of CC(C)OC(=O)N1CCC(ON=C2CCN(c3ccc(C=O)cc3F)CC2)CC1 [Example 2-22], the EC50 [1] is reported as 318 nM.

Compound CC(C)OC(=O)N1CCC(ON=C2CCN(c3cc(F)c(C(=N)N)cc3F)CC2)CC1 [Example 23-1, 4-[1-(4-Carbamimidoyl-2,5-difluoro-phenyl)-piperidin-4-ylideneaminooxy]-piperidine-1-carboxylic acid isopropyl ester] has an activation at 10 µM [2] of 3%.

For CC(C)OC(=O)N1CCC(ON=C2CCN(c3cc(F)c(Cn4cnc5ccncc54)cc3F)CC2)CC1 [Example 14-8], the EC50 [1] was 763 nM.

With CC(C)OC(=O)N1CCC(ON=C2CCN(c3ncc(S(C)(=O)=O)cc3F)CC2)CC1 [Example 46-1, 4 (5′-METHYLSULFONYL-3′-FLUORO-2,3,5,6-TETRAHYDRO-[1,2′]BIPYRIDINYL-4-YLIDENEAMINOOXY)-PIPERIDINE-1-CARBOXYLIC ACID ISOPROPYL ESTER] the EC50 (the 26th table, read-out: EC50) was 131 nM.

With CCc1cnc(N2CCC(ON=C3CCN(c4cc(F)c(C(=O)NC5CNC5)cc4F)CC3)CC2)nc1 [Example 29-116] the EC50 [3] was 322 nM.

CC(C)OC(=O)N1CCC(ON=C2CCN(c3cc(F)c(Cn4cncn4)cc3F)CC2)CC1 [Example 14-18] showed an EC50 [1] of 1350 nM.

In the case of CC(C)OC(=O)N1CCC(ON=C2CCN(c3cc(F)c(-c4c[nH]cn4)cc3F)CC2)CC1 [Example 27-14], the EC50 [1] is reported as 152 nM.

Work on CC(C)OC(=O)N1CCC(ON=C2CCN(c3cc4[nH]cnc(=O)c4cc3F)CC2)CC1 [Example 2-61] yielded an EC50 [1] greater than 10000 nM.

CS(=O)(=O)c1ccc(N2CCC(=NOC3CCN(C(=O)c4ccccc4)CC3)CC2)c(F)c1 [Example 65-21] gave an EC50 (the 34th table, compounds 65-1 to 65-24, read-out: EC50) of 747 nM.

Work on CC(C)OC(=O)N1CCC(ON=C2CCN(c3cc(F)c(NC(=N)N)cc3F)CC2)CC1 [Example 36-1, 4-[1-(2,5-Difluoro-4-guanidino-phenyl)-piperidin-4-ylideneaminooxy]-piperidine-1-carboxylic acid isopropyl ester] yielded an EC50 [1] of 1320 nM.

With CCc1cnc(N2CCC(ON=C3CCN(c4cc(F)c(C(=O)N5CCCC(CNC)C5)cc4F)CC3)CC2)nc1 (stereo not drawn) [Example 29-129] the EC50 [3] was 50 nM.

With C/C=C/c1ccc(CN2CCC(ON=C3CCN(c4cc(F)c(S(C)(=O)=O)cc4F)CC3)CC2)cc1F [Example 66-61] the EC50 (the 37th table, compounds 66-52 to 66-64, read-out: EC50) was 49 nM.

For CC(C)OC(=O)N1CCC(ON=C2CCN(c3ccnc(Cl)n3)CC2)CC1 [Example 2-46], the EC50 [1] was 1880 nM.

Work on CC(C)OC(=O)N1CCC(ON=C2CCN(c3ncc(Cl)cc3F)CC2)CC1 [Example 2-68] yielded an activation at 10 µM [2] of 63%.

CCOc1ccc(CN2CCC(ON=C3CCN(c4ccc(S(C)(=O)=O)cc4F)CC3)CC2)cc1 [Example 66-46] showed an EC50 [4] of 418 nM.

CS(=O)(=O)c1ccc(N2CCC(=NOC3CCN(Cc4ccc(Cl)cc4)CC3)CC2)c(F)c1 [Example 66-28] showed an EC50 [4] of 363 nM.

In the case of COC(=O)C(C)(C)COC(=O)N1CCC(ON=C2CCN(c3ccc(S(C)(=O)=O)cc3F)CC2)CC1 [Example 64-30], the EC50 (the 33rd table, read-out: EC50) is reported as 277 nM.

Compound CS(=O)(=O)c1ccc(N2CCC(=NOC3CCN(Cc4nccs4)CC3)CC2)c(F)c1 [Example 66-6] has an activation at 10 µM (at 10 μM, printed in EC50 column of the 36th table, read-out: stimulation in % at 10 μM) of 63%.

CS(=O)(=O)c1ccc(N2CCC(=NOC3CCN(C(=O)OCC4CNCCO4)CC3)CC2)c(F)c1 (stereo not drawn) [Example 64-38] gave an EC50 (the 33rd table, read-out: EC50) greater than 10000 nM.

CS(=O)(=O)c1ccc(N2CCC(=NOC3CCN(C(=O)OCc4ccccn4)CC3)CC2)c(F)c1 [Example 64-17] showed an EC50 (the 33rd table, read-out: EC50) of 1070 nM.

CS(=O)(=O)c1ccc(N2CCC(=NOC3CCN(c4nccc(Cl)n4)CC3)CC2)c(F)c1 [Example 63-6] gave an EC50 (the 32nd table, read-out: EC50) of 1340 nM.

Work on CC(C)OC(=O)N1CCC(ON=C2CCN(c3cc(F)c(CC(=O)N4CCCC(CN)C4)cc3F)CC2)CC1 (stereo not drawn) [Example 75-22] yielded an EC50 (the 43rd table, compounds 75-1 to 75-38, read-out: EC50) of 108 nM.

With CC(C)OC(=O)N1CCC(ON=C2CCN(c3cc(F)c(/C=C/C(=O)O)cc3F)CC2)CC1 [Example 40-1, 4-{1-[4-((E)-2-Carboxy-vinyl)-2,5-difluoro-phenyl]-piperidin-4-ylideneaminooxy}-piperidine-1-carboxylic acid isopropyl ester] the EC50 [1] was 2570 nM.

CC1(COC(=O)N2CCC(ON=C3CCN(c4ccc(S(C)(=O)=O)cc4F)CC3)CC2)CC1 [Example 64-7] gave an EC50 (the 33rd table, read-out: EC50) of 67 nM.
